The results in this text go back to ChEMBL document CHEMBL1124494, “Synthesis and biological evaluation of S-adenosyl-1,12-diamino-3-thio-9-azadodecane, a multisubstrate adduct inhibitor of spermine synthase” (J Med Chem, 1989).

The target of this assay is T1, Spermidine synthase (Rattus norvegicus, UniProt Q99MI5).
T1 sequence (Q99MI5 whole entry): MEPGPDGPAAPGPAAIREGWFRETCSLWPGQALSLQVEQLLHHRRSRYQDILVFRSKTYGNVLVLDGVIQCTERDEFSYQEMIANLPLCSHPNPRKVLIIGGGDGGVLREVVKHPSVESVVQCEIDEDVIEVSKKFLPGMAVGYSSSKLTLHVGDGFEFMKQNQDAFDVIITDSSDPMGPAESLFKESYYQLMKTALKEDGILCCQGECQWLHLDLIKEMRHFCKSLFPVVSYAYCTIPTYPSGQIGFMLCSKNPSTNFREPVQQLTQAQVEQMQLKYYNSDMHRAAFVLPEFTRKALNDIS
Nature of the assay: Inhibition of spermidine synthase activity was evaluated. The following applies: read-out: I50.
With `NCCCNCCCCCC(CCN)SC[C@H]1OC(n2cnc3c(N)ncnc32)[C@H](O)[C@@H]1O` (stereo partly drawn), the IC50 was > 13 µM. As for `CCCCCC(CC)SC[C@H]1OC(n2cnc3c(N)ncnc32)[C@H](O)[C@@H]1O` (stereo partly drawn), the figure is > 500 µM. On to `CCCNCCCCCC(CC)SC[C@H]1OC(n2cnc3c(N)ncnc32)[C@H](O)[C@@H]1O` (stereo partly drawn), for which the IC50 was > 500 µM.
